Measurements: the NIST ThermoML archive (doi:10.1021/acs.jced.6b00430)
± gives the expanded uncertainty stated by the source.

Assay: xn = mol fraction of the nth substance listed
Details: 100 kPa, Liquid; for electrical conductivity: Alternating current cell with electrodes; for viscosity: Concentric cylinders viscometry; for mass density: Vibrating tube method

O=[PH](O)O [phosphonic acid] + CN(C)C=O
Details | electrical conductivity [S/m] | mass density [kg/m3] | viscosity [mPa·s]
298.15 K, x1 = 0.0911 | – | 992.53 ± 10 | –
298.15 K, x1 = 0.1181 | 0.0572 ± 0.0057 | – | –
298.15 K, x1 = 0.1365 | – | 1016.46 ± 10 | –
298.15 K, x1 = 0.1798 | – | 1040.55 ± 10 | –
298.15 K, x1 = 0.1829 | – | 1041.85 ± 10 | –
298.15 K, x1 = 0.1973 | – | – | 2.92 ± 0.18
298.15 K, x1 = 0.2293 | – | 1069.29 ± 10 | –
298.15 K, x1 = 0.2507 | – | – | 4.75 ± 0.29
298.15 K, x1 = 0.291 | – | 1104.79 ± 10 | –
298.15 K, x1 = 0.2984 | 0.0925 ± 0.0093 | – | 7.07 ± 0.43
298.15 K, x1 = 0.3115 | – | – | 7.88 ± 0.47
298.15 K, x1 = 0.3298 | 0.0934 ± 0.0093 | 1129.74 ± 10 | –
298.15 K, x1 = 0.3442 | – | 1137.78 ± 10 | –
298.15 K, x1 = 0.3491 | – | – | 11.5 ± 0.7
298.15 K, x1 = 0.3712 | – | 1154.77 ± 10 | –
298.15 K, x1 = 0.3937 | – | 1169.25 ± 10 | –
298.15 K, x1 = 0.3968 | 0.129 ± 0.013 | – | 17.6 ± 1.1
298.15 K, x1 = 0.3988 | – | – | 17.8 ± 1.1
298.15 K, x1 = 0.4107 | – | 1182.13 ± 10 | 20.7 ± 1.2
298.15 K, x1 = 0.421 | – | 1188.34 ± 10 | –
298.15 K, x1 = 0.4479 | 0.141 ± 0.014 | 1207.13 ± 10 | 28.7 ± 1.7
298.15 K, x1 = 0.4707 | – | 1221.83 ± 10 | –
298.15 K, x1 = 0.493 | – | 1235.89 ± 10 | –
298.15 K, x1 = 0.4968 | – | – | 41.6 ± 2.5
298.15 K, x1 = 0.5074 | – | 1244.77 ± 10 | 43.9 ± 2.6
298.15 K, x1 = 0.5196 | – | 1255.1 ± 10 | –
298.15 K, x1 = 0.5429 | – | 1270.6 ± 10 | –
298.15 K, x1 = 0.5503 | – | – | 62.4 ± 3.8
298.15 K, x1 = 0.5724 | – | 1292.1 ± 10 | –
298.15 K, x1 = 0.5761 | 0.216 ± 0.022 | – | 73.5 ± 4.4
298.15 K, x1 = 0.5925 | – | 1306.05 ± 10 | –
298.15 K, x1 = 0.5993 | – | – | 80.5 ± 4.9
298.15 K, x1 = 0.6245 | – | 1328.62 ± 10 | –
298.15 K, x1 = 0.6261 | – | – | 90 ± 5.5
298.15 K, x1 = 0.6316 | 0.294 ± 0.029 | – | 95.2 ± 5.8
298.15 K, x1 = 0.6478 | – | – | 102.8 ± 6.3
298.15 K, x1 = 0.6554 | 0.333 ± 0.033 | 1355.76 ± 10 | 103.3 ± 6.3
298.15 K, x1 = 0.6753 | – | 1364.54 ± 10 | –
298.15 K, x1 = 0.682 | 0.411 ± 0.041 | – | 113.5 ± 6.9
298.15 K, x1 = 0.6923 | – | 1378.85 ± 10 | –
298.15 K, x1 = 0.7142 | – | 1399.02 ± 10 | 122.7 ± 7.5
298.15 K, x1 = 0.725 | – | 1401.52 ± 10 | –
298.15 K, x1 = 0.7592 | – | 1432.85 ± 10 | –
298.15 K, x1 = 0.7694 | 0.663 ± 0.066 | 1444 ± 10 | 139.8 ± 8.6
298.15 K, x1 = 0.7832 | 0.702 ± 0.07 | – | 142.5 ± 8.8
298.15 K, x1 = 0.7845 | – | 1450.65 ± 10 | –
308.15 K, x1 = 0.0911 | – | 983.17 ± 10 | –
308.15 K, x1 = 0.1181 | 0.0647 ± 0.0065 | – | –
308.15 K, x1 = 0.1365 | – | 1007.16 ± 10 | –
308.15 K, x1 = 0.1798 | – | 1031.35 ± 10 | –
308.15 K, x1 = 0.1829 | – | 1032.63 ± 10 | –
308.15 K, x1 = 0.1973 | – | – | 2.49 ± 0.15
308.15 K, x1 = 0.2293 | – | 1060.16 ± 10 | –
308.15 K, x1 = 0.2507 | – | – | 3.92 ± 0.24
308.15 K, x1 = 0.291 | – | 1095.72 ± 10 | –
308.15 K, x1 = 0.2984 | 0.116 ± 0.012 | – | 5.72 ± 0.34
308.15 K, x1 = 0.3115 | – | – | 6.3 ± 0.38
308.15 K, x1 = 0.3298 | 0.119 ± 0.012 | 1120.73 ± 10 | –
308.15 K, x1 = 0.3442 | – | 1128.83 ± 10 | –
308.15 K, x1 = 0.3491 | – | – | 9.06 ± 0.55
308.15 K, x1 = 0.3712 | – | 1145.98 ± 10 | –
308.15 K, x1 = 0.3937 | – | 1160.41 ± 10 | –
308.15 K, x1 = 0.3968 | 0.169 ± 0.017 | – | 13.3 ± 0.8
308.15 K, x1 = 0.3988 | – | – | 14 ± 0.8
308.15 K, x1 = 0.4107 | – | 1173.31 ± 10 | 15.4 ± 0.9
308.15 K, x1 = 0.421 | – | 1179.34 ± 10 | –
308.15 K, x1 = 0.4479 | 0.19 ± 0.019 | 1198.35 ± 10 | 20.9 ± 1.3
308.15 K, x1 = 0.4707 | – | 1213.06 ± 10 | –
308.15 K, x1 = 0.493 | – | 1227.23 ± 10 | –
308.15 K, x1 = 0.4968 | – | – | 29.2 ± 1.8
308.15 K, x1 = 0.5074 | – | 1236.13 ± 10 | 30.3 ± 1.8
308.15 K, x1 = 0.5196 | – | 1246.49 ± 10 | –
308.15 K, x1 = 0.5429 | – | 1262.02 ± 10 | –
308.15 K, x1 = 0.5503 | – | – | 42.4 ± 2.6
308.15 K, x1 = 0.5724 | – | 1283.54 ± 10 | –
308.15 K, x1 = 0.5761 | 0.301 ± 0.03 | – | 48.6 ± 2.9
308.15 K, x1 = 0.5925 | – | 1297.57 ± 10 | –
308.15 K, x1 = 0.5993 | – | – | 51 ± 3.1
308.15 K, x1 = 0.6245 | – | 1320.2 ± 10 | –
308.15 K, x1 = 0.6261 | – | – | 59.4 ± 3.6
308.15 K, x1 = 0.6316 | 0.41 ± 0.041 | – | 61.2 ± 3.7
308.15 K, x1 = 0.6478 | – | – | 64.5 ± 3.9
308.15 K, x1 = 0.6554 | 0.476 ± 0.048 | 1347.39 ± 10 | 66.1 ± 4
308.15 K, x1 = 0.6753 | – | 1356.23 ± 10 | –
308.15 K, x1 = 0.682 | 0.589 ± 0.059 | – | 72.4 ± 4.4
308.15 K, x1 = 0.6923 | – | 1370.56 ± 10 | –
308.15 K, x1 = 0.7142 | – | 1390.77 ± 10 | 78.3 ± 4.7
308.15 K, x1 = 0.725 | – | 1393.35 ± 10 | –
308.15 K, x1 = 0.7592 | – | 1424.69 ± 10 | –
308.15 K, x1 = 0.7694 | 0.959 ± 0.096 | 1435.87 ± 10 | 87.4 ± 5.3
308.15 K, x1 = 0.7832 | 1.02 ± 0.1 | – | 88.2 ± 5.4
308.15 K, x1 = 0.7845 | – | 1442.56 ± 10 | –
318.15 K, x1 = 0.0911 | – | 973.7 ± 10 | –
318.15 K, x1 = 0.1181 | 0.0725 ± 0.0073 | – | –
318.15 K, x1 = 0.1365 | – | 997.83 ± 10 | –
318.15 K, x1 = 0.1798 | – | 1022.15 ± 10 | –
318.15 K, x1 = 0.1829 | – | 1023.41 ± 10 | –
318.15 K, x1 = 0.1973 | – | – | 2.16 ± 0.13
318.15 K, x1 = 0.2293 | – | 1051.04 ± 10 | –
318.15 K, x1 = 0.2507 | – | – | 3.35 ± 0.2
318.15 K, x1 = 0.291 | – | 1086.67 ± 10 | –
318.15 K, x1 = 0.2984 | 0.142 ± 0.014 | – | 4.77 ± 0.29
318.15 K, x1 = 0.3115 | – | – | 5.21 ± 0.31
318.15 K, x1 = 0.3298 | 0.148 ± 0.015 | 1111.75 ± 10 | –
318.15 K, x1 = 0.3442 | – | 1119.89 ± 10 | –
318.15 K, x1 = 0.3491 | – | – | 7.26 ± 0.44
318.15 K, x1 = 0.3712 | – | 1137.21 ± 10 | –
318.15 K, x1 = 0.3937 | – | 1151.58 ± 10 | –
318.15 K, x1 = 0.3968 | 0.217 ± 0.022 | – | 10.5 ± 0.6
318.15 K, x1 = 0.3988 | – | – | 10.6 ± 0.6
318.15 K, x1 = 0.4107 | – | 1164.51 ± 10 | 12 ± 0.7
318.15 K, x1 = 0.4479 | 0.25 ± 0.025 | – | 15.8 ± 1
318.15 K, x1 = 0.4968 | – | – | 21.2 ± 1.3
318.15 K, x1 = 0.5074 | – | – | 22.2 ± 1.3
318.15 K, x1 = 0.5503 | – | – | 30 ± 1.8
318.15 K, x1 = 0.5761 | 0.397 ± 0.04 | – | 34.1 ± 2.1
318.15 K, x1 = 0.5993 | – | – | 35.2 ± 2.1
318.15 K, x1 = 0.6261 | – | – | 41.2 ± 2.5
318.15 K, x1 = 0.6316 | 0.548 ± 0.055 | – | 42 ± 2.5
318.15 K, x1 = 0.6478 | – | – | 43.6 ± 2.6
318.15 K, x1 = 0.6554 | 0.626 ± 0.063 | – | 45 ± 2.7
318.15 K, x1 = 0.682 | 0.81 ± 0.081 | – | 49 ± 3
318.15 K, x1 = 0.7142 | – | – | 51.4 ± 3.1
318.15 K, x1 = 0.7694 | 1.33 ± 0.13 | – | 57.3 ± 3.5
318.15 K, x1 = 0.7832 | 1.41 ± 0.14 | – | 58.4 ± 3.5
